Measured values published in patent US20110028566A1, “COMPOSITIONS AND PRODUCTS CONTAINING CYCLOALIPHATIC DIOL ANTIMICROBIAL AGENTS AND METHODS OF USING THE COMPOSITIONS AND PRODUCTS” (EASTMAN CHEMICAL COMPANY, priority 2009, published 2011).
Where “and” joins values, the source holds several entries; their conditions need not be identical. Equal entries are not always repeated.

Experiments:
[1] = system: challenge organisms (fungi, Gram negative and Gram positive bacteria); experiment: Microbial challenge testing (Example 1), statements over all challenge organisms; assay type: cell-based; details: Table 6 experiments; glycol 0.5 to 2.5 wt %, BIT 0.05 and 0.2 wt %; from grade codes
Protocol: The microorganisms used in challenge tests are given in Table 3, designated as either ATCC (American Type Culture Collection) or wild type. These wild type organisms were problematic organisms previously isolated from chemical products. In the description for each organism, the bacteria are indicated as either GN (Gram negative) or GP (Gram positive). […] Sample substrates were prepared in triplicate, except those substrates containing PE or CG which were prepared in duplicate. […] After mixing, all challenged substrates were incubated at 35° C.±2° C. for 14 days and then at ambient room temperature. […] The turbidity of the sample was determined and, if needed, the sample was diluted with phosphate buffer (pH 7.2) to produce readable plate counts (see “Plate Counts” below). […] For diluted samples, plates producing 22 to 220 colonies per plate were counted and the count was multiplied by the dilution factor. […] Possible synergies were determined by treating the grade code as an estimate of the log of the microbial count (log of cfu/mL). […] Synergies were determined in the same way as described above for Table 5. […] As mentioned previously, synergies (as indicated in Tables 5 and 6) were determined by treating the grade codes as the logarithm (log) of the organism counts (cfu/ml), then adding log reductions for the individual components and comparing to the log reduction for the mixture. […]

[2] = system: Escherichia coli ATCC 25922; experiment: MIC determination and synergy testing (Kull synergy index), microplate; assay type: cell-based; details: for QA, MIC of CHDM alone / QA/a: concentration of CHDM (MIC alone, or in the combination at an inhibitory concentration) / SI (synergy index) / QA/a: concentration of CHDM alone (QA, MIC) / QB/b: concentration of CG (MIC alone, or in the combination at an inhibitory concentration): E. coli; for QA/a: concentration of CHDM (MIC alone, or in the combination at an inhibitory concentration) / SI (synergy index) / QB/b: concentration of CG (MIC alone, or in the combination at an inhibitory concentration): plate 107A, CG and CHDM
Protocol: The test cultures are listed in Table 7 along with the incubation temperatures used for growth and minimum inhibitory concentration (MIC) testing. […] C. albicans was cultured in Sabouraud dextrose broth (SDB) for approximately 44-52 hours for preparation of inoculum. A. niger was cultured on Sabouraud dextrose agar (SDA) for 3-4 days until there was confluent growth and visible spore formation. Spores were harvested from the SDA plates by flooding the surface of the plate with 5-10 mL of phosphate-buffered saline (PBS) and gently spreading the liquid across the surface of the plate with a sterile T-shaped plastic spreader (Copan Diagnostics) until there was a well-mixed suspension of spores. The resulting spore suspension was collected using a serological pipette and stored at 2-8° C. until use.
Inoculum concentration was determined by dilution plating of the cultures or spore suspension. A serial dilution in PBS was made to 10^−8 for the bacterial cultures or 10^−5 for the fungal cultures. Fifty or 100 μL of the final dilution was spread on two Trypticase-soy agar (TSA) plates for bacteria or two SDA plates for fungi. After 24 to 48 hours plates were counted and the concentrations used in each experiment were calculated.
The antimicrobial agents tested for synergy along with the respective diluents and working stock solution concentrations are shown below. For determination of MIC ranges, individual antimicrobial agent stock solutions were added to sterile medium to yield the highest level test concentrations, and then serially diluted in the medium to prepare the range of test concentrations. For synergy testing individual test concentrations were prepared in sterile medium, and then blended to form the desired combinations.
MICs were determined using a high-throughput microplate method. Individual antimicrobial agents were added to TSB (pH 7.3) for bacterial testing or SDB (pH 5.6) for fungal testing at the highest concentration to be tested. A serial dilution series was prepared at a dilution ratio of 1:1.3333 such that a one log range was covered in nine dilutions. Two-hundred microliters of the diluted antimicrobial agents were dispensed into four wells each of a sterile, 96-well, flat-bottom microplate (Nalge Nunc International). Four additional wells of the highest concentration were dispensed to serve as uninoculated high-level controls. Eight additional wells containing only broth medium were also prepared, four to serve as negative controls and four as positive controls. Three wells of each antimicrobial agent dilution were inoculated with one of the test strains in Table 7. The final well of each antimicrobial agent dilution was left uninoculated to serve as a control (and means of compensating) for any absorbance/turbidity due to the test compounds.
Microplates were inoculated using the cultures or spore suspensions prepared as described above. The S. aureus cultures were used undiluted, while the E. coli and P. aeruginosa cultures were used either undiluted or after a 1:2 dilution in sterile TSB. The C. albicans cultures were used either undiluted or following a 2-fold concentration by centrifugation. One of two means of inoculation was used to deliver a final concentration of approximately 10^5 colony-forming units (CFU)/mL of C. albicans, 10^5 spores/mL of A. niger, or 10^6 CFU/mL of bacteria. The primary method used a stainless steel pin replicator (Nalge Nunc International) mounted on a hand-operated bench-top press (Schmidt Technology Corporation) fitted with a custom-built microplate holder to dispense one microliter of each inoculum from a “master” plate containing 50-100 μL of culture into the wells of the test plate. The pin replicator was sterilized before and between inoculations by immersing in ethanol and flaming. The alternative method of inoculation was by directly pipetting 20 μL of a 1:20 dilution of each culture or spore suspension into the appropriate wells of the test plates.

| SMILES | Synergism of cycloaliphatic diol with BIT (in words) [1] | QA/a ([2]; CHDM alone (QA) or in combination with BA:DHA (a), plate 111A, day 1) | QA/a ([2]; CHDM alone (QA) or in combination with IPBC (a), plate 119A, day 1) | QA/a ([2]; CHDM alone (QA) or in combination with IPBC (a), plate 119A, day 2) | QA/a ([2]; CHDM: MIC alone (QA) or conc. in combination with CP (a), plate 110A, day 1) | QA/a ([2]; CHDM: MIC alone (QA) or conc. in combination with CP (a), plate 110A, day 2) | QA, MIC of CHDM alone ([2]; day 1 of incubation, plate 108A (MP series)) [weight percent] | QA, MIC of CHDM alone ([2]; day 1 of incubation, plates 105A, 213A, 223A (PE series)) | QA, MIC of CHDM alone ([2]; day 2 of incubation, plate 108A (MP series)) [weight percent] | QA, MIC of CHDM alone ([2]; day 2 of incubation, plates 105A, 213A, 223A (PE series)) | QA/a: concentration of CHDM (MIC alone, or in the combination at an inhibitory concentration) ([2]; day 1) [weight percent] | SI (synergy index) ([2]; day 1) | QA/a: concentration of CHDM (MIC alone, or in the combination at an inhibitory concentration) ([2]; day 2) [weight percent] | SI (synergy index) ([2]; day 2) | QA/a: concentration of CHDM alone (QA, MIC) ([2]; Table 44, Day 1) [weight percent] | QA/a: concentration of CHDM alone (QA, MIC) ([2]; Table 44, Day 2) [weight percent] | QA/a: concentration of CHDM alone (QA, MIC) ([2]; Table 47, Day 1) [weight percent] | QA/a: concentration of CHDM alone (QA, MIC) ([2]; Table 47, Day 2) [weight percent] | QB/b: concentration of CG (MIC alone, or in the combination at an inhibitory concentration) ([2]; day 1) [weight percent] | QB/b: concentration of CG (MIC alone, or in the combination at an inhibitory concentration) ([2]; day 2) [weight percent] |
| --- | --- | --- | --- | --- | --- | --- | --- | --- | --- | --- | --- | --- | --- | --- | --- | --- | --- | --- | --- | --- |
| OCC1CCC(CO)CC1 (centres unmarked) [1,4-CHDM, 1,4-cyclohexanedimethanol] | significant enhancement to the antimicrobial activity of BIT | 1.73 | 1.73 | 1.73 | 1.73 | 1.73 | 1.73 | 1.30 weight percent and 1.47 weight percent | 1.73 | 1.30 weight percent and 1.47 weight percent | 1.73 | 1.00 | 1.73 | 1.00 | 1.73 | 1.73 | 1.73 | 1.73 | – | – |
| CCCCCCC(O)CO (centres unmarked) [CG, 1,2-octanediol] | – | – | – | – | – | – | – | – | – | – | – | 1.00 | – | 1.00 | – | – | – | – | 0.16 | 0.16 |
| CC1(C)C(O)C(C)(C)C1O (centres unmarked) [TMCD, 2,2,4,4-tetramethyl-1,3-cyclobutanediol] | significant enhancement to the antimicrobial activity of BIT | – | – | – | – | – | – | – | – | – | – | – | – | – | – | – | – | – | – | – |
